In patent US9409884B2 (Rigel Pharmaceuticals, Inc., priority 2012, dated 2016):

Target: AMPK
Experiment: AMPK activation, enzyme-linked immunosorbent assay
Format: biochemical
Details: Table 14, compounds of Table 7
Outline: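 AMPK activation by test compounds was measured by enzyme-linked immunosorbent assay.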

Compound | EC50
COc1ccc(C(=O)C2CCN(C(=O)c3ccc(C(=O)NC4CCN(Cc5ccc(F)c(OC)c5)C[C@@H]4C)cn3)CC2)cc1 (stereo partly drawn) [Compound 7-97, N-((3,4-cis)-1-(4-fluoro-3-methoxybenzyl)-3-methylpiperidin-4-yl)-6-(4-(4-methoxybenzoyl)piperidine-1-carbonyl)nicotinamide] | < 1000 nM
COc1ccc(C(=O)C2CCN(C(=O)c3ccc(C(=O)NC4CCN(Cc5ccc(C#N)c(F)c5)C[C@@H]4C)cn3)CC2)cc1 (stereo partly drawn) [Compound 7-98, N-((3,4-cis)-1-(4-cyano-3-fluorobenzyl)-3-methylpiperidin-4-yl)-6-(4-(4-methoxybenzoyl)piperidine-1-carbonyl)nicotinamide] | < 1000 nM
COc1ccc(C(=O)C2CCN(C(=O)c3ccc(C(=O)NC4CCN(Cc5ccc(C#N)c(OC)c5)C[C@@H]4C)cn3)CC2)cc1 (stereo partly drawn) [Compound 7-99, N-((3,4-cis)-1-(4-cyano-3-methoxybenzyl)-3-methylpiperidin-4-yl)-6-(4-(4-methoxybenzoyl)piperidine-1-carbonyl)nicotinamide] | < 1000 nM
COc1ccc(C(=O)C2CCN(C(=O)c3ccc(C(=O)NC4CCN(Cc5ccc(OC)c(C#N)c5)C[C@@H]4C)cn3)CC2)cc1 (stereo partly drawn) [Compound 7-100, N-((3,4-cis)-1-(3-cyano-4-methoxybenzyl)-3-methylpiperidin-4-yl)-6-(4-(4-methoxybenzoyl)piperidine-1-carbonyl)nicotinamide] | < 1000 nM
COc1ccc(C(=O)C2CCN(C(=O)c3ccc(C(=O)NC4CCN(Cc5ccc(C#N)cc5)C[C@@H]4C(F)(F)F)cn3)CC2)cc1 (stereo partly drawn) [Compound 7-101, N-((3,4-cis)-1-(4-cyanobenzyl)-3-(trifluoromethyl)piperidin-4-yl)-6-(4-(4-methoxybenzoyl)piperidine-1-carbonyl)nicotinamide] | < 1000 nM
COc1ccc(CN2CCC(NC(=O)c3ccc(C(=O)N4CCC(C(=O)c5ccc(OC)cc5)CC4)nc3)[C@@H](C(F)(F)F)C2)cc1 (stereo partly drawn) [Compound 7-102, 6-(4-(4-methoxybenzoyl)piperidine-1-carbonyl)-N-((3,4-cis)-1-(4-methoxybenzyl)-3 - (trifluoromethyl)piperidin-4-yl)nicotinamide] | < 1000 nM
COc1ccc(C(=O)C2CCN(C(=O)c3cc(C)c(C(=O)NC4CCN(Cc5ccc(C#N)cc5)CC4)cn3)CC2)cc1 [Compound 7-105, N-(1-(4-cyanobenzyl)piperidin-4-yl)-6-(4-(4-methoxybenzoyl)piperidine-1-carbonyl)-4-methylnicotinamide] | < 1000 nM
O=C(NC1CCN(Cc2ccc(OC(F)(F)F)cc2)CC1)c1ccc(C(=O)N2CCC(Oc3cccc(NC(=O)C4CC4)c3)CC2)nc1 [Compound 7-108, 6-(4-(3-(cyclopropanecarboxamido)phenoxy)piperidine-1-carbonyl)-N-(1-(4-(trifluoromethoxy)benzyl)piperidin-4-yl)nicotinamide] | < 1000 nM
COc1ccc(CN2CCC(NC(=O)c3ccc(C(=O)N4CCC(C(=O)c5ccc(N6CCCC6)cc5)CC4)nc3)CC2)cc1 [Compound 7-109, N-(1-(4-methoxybenzyl)piperidin-4-yl)-6-(4-(4-(pyrrolidin-1-yl)benzoyl)piperidine-1-carbonyl)nicotinamide] | < 1000 nM
O=C(NC1CCN(Cc2ccc(OC(F)(F)F)cc2)CC1)c1ccc(C(=O)N2CCC(C(=O)c3ccc(N4CCCC4)cc3)CC2)nc1 [Compound 7-110, 6-(4-(4-(pyrrolidin-1-yl)benzoyl)piperidine-1-carbonyl)-N-(1-(4-(trifluoromethoxy)benzyl)piperidin-4-yl)nicotinamide] | < 1000 nM
O=C(NC1CCN(Cc2cccc(OC(F)(F)F)c2)CC1)c1ccc(C(=O)N2CCC(C(=O)c3ccc(N4CCCC4)cc3)CC2)nc1 [Compound 7-111, 6-(4-(4-(pyrrolidin-1-yl)benzoyl)piperidine-1-carbonyl)-N-(1-(3-(trifluoromethoxy)benzyl)piperidin-4-yl)nicotinamide] | < 1000 nM
